# According to patent US10189843B2, “Fused pyrazole derivative having autotaxin inhibitory activity” (The University of Tokyo, priority 2014, dated 2019):
# Target: T1, Human autotaxin enzyme (Homo sapiens, UniProt Q13822)
# T1 construct: purchased R&D System
# Experiment: Evaluation of autotaxin inhibitor, Method C (18:0 Lyso PC substrate, choline assay, Resorufin fluorescence)
# Type: biochemical
# Settings: Method C (Test Example 3), read-out: Inhibitory activity (enzyme inhibitory activity, IC50)
# Outline: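 Recombinant human autotaxin with compound and 200 μM 18:0 Lyso PC (stock) in Tris-HCl pH 7.5, NaCl, MgCl2, Triton X-100, 2 h RT. Released choline detected via choline oxidase/peroxidase/Amplex-type reagent, 20 min, resorufin fluorescence 531/598 nm; % inhibition vs no-compound and no-enzyme controls, concentration-response curve.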
row,SMILES,IC50
1,CCCCC1CN(Cc2ccc(C#N)cc2)C(=O)c2cc(N3CC(c4ccccc4)C3)nn21 (centres unmarked) [Compound I-0303],≥ 1000 nM
2,CCNc1cc(Cl)cc(CO)c1-c1cc2n(n1)[C@@H](C)CN(Cc1ccc(C#N)cc1)C2=O [Compound I-0356],< 10 nM
3,C[C@H]1CN(CC(=O)N(C)CCC#N)C(=O)c2cc(-c3ccc(C#N)cc3NC(=O)C(F)(F)F)nn21 [Compound I-0354],< 10 nM
4,CC(=O)Nc1cc(Cl)cnc1-c1cc2n(n1)[C@@H](C)CN(Cc1ccc(C#N)cc1)C2=O [Compound I-0337],10 to 100 nM
5,C[C@H]1CN(Cc2ccc(C#N)cc2)C(=O)c2cc(-c3c(Br)cc(Cl)cc3CO)nn21 [Compound I-0361],100 to 1000 nM
6,CC(=O)Nc1cc(Cl)c(F)cc1-c1cc2n(n1)[C@@H](C)CN(Cc1ccc(C#N)cc1)C2=O [Compound I-0330],< 10 nM
7,C[C@H]1CN(CC(=O)NC(Cc2ccccc2)C(=O)O)C(=O)c2cc(-c3ccc(Cl)cc3)nn21 (some centres unmarked) [Compound I-0160],10 to 100 nM
8,COC(=O)Nc1cc(Cl)ccc1-c1cc2n(n1)[C@@H](C)CN(CC(=O)N(C)CC#N)C2=O [Compound I-0363],10 to 100 nM
9,C[C@H]1CN(Cc2ccc(C#N)cc2)C(=O)c2cc(-c3ccc(Cl)cc3Nc3nccs3)nn21 [Compound I-0324],≥ 1000 nM
10,CCOC(=O)CN1C[C@H](C)n2nc(-c3ccc(Cl)cc3)cc2C1=O [Compound I-0019],≥ 1000 nM
11,CCCCC1CN(Cc2ccc(C#N)cc2)C(=O)c2cc(N3Cc4ccccc4C3)nn21 (centres unmarked) [Compound I-0306],≥ 1000 nM
12,N#Cc1ccc(CN2CC(COC(F)(F)C(F)F)n3nc(-c4ccc(Cl)cc4)cc3C2=O)cc1 (centres unmarked) [Compound I-0195],100 to 1000 nM
13,CCCCC1CN(Cc2ccc(C#N)cc2)C(=O)c2cc(N3[C@@H]4CC[C@H]3CC(F)(F)C4)nn21 (some centres unmarked) [Compound I-0307],≥ 1000 nM
14,CC1(C)CN(CC(=O)N2CCC(C(=O)O)CC2)C(=O)c2cc(-c3ccc(Cl)cc3)nn21 [Compound I-0016],≥ 1000 nM
15,CCCCC1CN(CC(=O)N2CCC(C#N)CC2)C(=O)c2cc(-c3ccc(Cl)cc3)nn21 (centres unmarked) [Compound I-0220],100 to 1000 nM
16,CCOC(=O)CN1C(=O)c2cc(-c3ccc(Cl)cc3)nn2[C@H]2CCC[C@H]21 [Compound I-0009],100 to 1000 nM
17,C[C@H]1CN(CC(=O)N(C)CC#N)C(=O)c2cc(-c3ccc(Cl)cc3NC(=O)C3CC3)nn21 [Compound I-0365],10 to 100 nM
18,N#Cc1ccc(CN2CC(COCc3ccccc3)n3nc(-c4ccc(Cl)cc4)cc3C2=O)cc1 (centres unmarked) [Compound I-0177],≥ 1000 nM
19,CCCOCC1CN(CC(=O)NC2(CC#N)CC2)C(=O)c2cc(-c3ccc(Cl)cc3)nn21 (centres unmarked) [Compound I-0251],100 to 1000 nM
20,CC(C)(O)CNC(=O)CN1CC(COCC(F)(F)F)n2nc(-c3ccc(Cl)cc3)cc2C1=O (centres unmarked) [Compound I-0315],100 to 1000 nM
21,CCOC(=O)CN1C(=O)c2cc(-c3ccc(Cl)cc3)nn2[C@@H]2CCC[C@@H]21 [Compound I-0010],≥ 1000 nM

# Continued, values first:
row,IC50,SMILES
1,100 to 1000 nM,CCCCC1CN(Cc2ccc(C#N)cc2)C(=O)c2cc(-c3ccc(Cl)cn3)nn21 (centres unmarked) [Compound I-0277]
2,≥ 1000 nM,C[C@H]1CN(Cc2cccc(C(=O)N3CCC(O)CC3)c2)C(=O)c2cc(-c3ccc(Cl)cc3)nn21 [Compound I-0167]
3,≥ 1000 nM,CCCC1CN(Cc2ccc(C#N)cc2)C(=O)c2cc(-c3ccc(C(F)(F)F)cc3)nn21 (centres unmarked) [Compound I-0182]
4,≥ 1000 nM,CCCCCC1CN(CC(=O)N2CCC(N(C)C)CC2)C(=O)c2cc(-c3ccc(Cl)cc3)nn21 (centres unmarked) [Compound I-0111]
5,10 to 100 nM,CCCOCC1CN(Cc2ccc(C#N)cc2)C(=O)c2cc(-c3ccc(Cl)cc3)nn21 (centres unmarked) [Compound I-0291]
6,100 to 1000 nM,CCCCCC1CN(CC(=O)N2CCCCCC2)C(=O)c2cc(-c3ccc(Cl)cc3)nn21 (centres unmarked) [Compound I-0098]
7,100 to 1000 nM,CCCCCC1CN(Cc2ccc(C(N)=O)cc2)C(=O)c2cc(-c3ccc(Cl)cc3)nn21 (centres unmarked) [Compound I-0147]
8,100 to 1000 nM,CCCCCC1CN(Cc2cccc(NC(C)=O)c2)C(=O)c2cc(-c3ccc(Cl)cc3)nn21 (centres unmarked) [Compound I-0142]
9,10 to 100 nM,CCCCC1CN(CC(=O)N(C)CC#N)C(=O)c2cc(-c3ccc(Cl)cc3)nn21 (centres unmarked) [Compound I-0208]
10,100 to 1000 nM,CCCCCC1CN(CC(=O)N2CCNCC2)C(=O)c2cc(-c3ccc(Cl)cc3)nn21 (centres unmarked) [Compound I-0100]
11,≥ 1000 nM,CCCCCC1CN(CC(=O)N2CCCC2Cc2ccccc2)C(=O)c2cc(-c3ccc(Cl)cc3)nn21 (centres unmarked) [Compound I-0072]
12,10 to 100 nM,CCCCC1CN(Cc2ccc(C#N)cc2)C(=O)c2cc(-c3ccc(Cl)cc3)nn21 (centres unmarked) [Compound I-0183]
13,≥ 1000 nM,C[C@H]1CN(Cc2ccccc2OCCCN(C)C)C(=O)c2cc(-c3ccc(Cl)cc3)nn21 [Compound I-0168]
14,10 to 100 nM,CCCCC1CN(CC2CN(CC#N)C(=O)O2)C(=O)c2cc(-c3ccc(Cl)cc3)nn21 (centres unmarked) [Compound I-0299]
15,≥ 1000 nM,C[C@H]1CN(Cc2ccc(O)cc2)C(=O)c2cc(-c3ccc(Cl)cc3)nn21 [Compound I-0171]
16,100 to 1000 nM,CCCCCC1CN(CC(=O)N2CCC[C@@H](C)C2)C(=O)c2cc(-c3ccc(Cl)cc3)nn21 (some centres unmarked) [Compound I-0071]

row,IC50,SMILES
1,≥ 1000 nM,CCCCCC1CN(Cc2cccc(C)c2)C(=O)c2cc(-c3ccc(Cl)cc3)nn21 (centres unmarked) [Compound I-0128]
2,100 to 1000 nM,CCCCCC1CN(CC(=O)NCCCCCCC(=O)O)C(=O)c2cc(-c3ccc(Cl)cc3)nn21 (centres unmarked) [Compound I-0057]
3,100 to 1000 nM,CCCCCC1CN(CC(=O)Nc2cccnc2)C(=O)c2cc(-c3ccc(Cl)cc3)nn21 (centres unmarked) [Compound I-0086]
4,100 to 1000 nM,CCCCCC1CN(CC(=O)N2CCOCC2)C(=O)c2cc(-c3ccc(Cl)cc3)nn21 (centres unmarked) [Compound I-0101]
5,100 to 1000 nM,CCCCCC1CN(CC(=O)N2CCC(Cc3ccccc3)C2)C(=O)c2cc(-c3ccc(Cl)cc3)nn21 (centres unmarked) [Compound I-0032]
6,< 10 nM,CCCCCC1CN(Cc2cccc(C(=O)O)c2)C(=O)c2cc(-c3ccc(Cl)cc3)nn21 (centres unmarked) [Compound I-0148]
7,100 to 1000 nM,CCCCC1CN(CC(=O)N2CCCC[C@H]2C)C(=O)c2cc(-c3ccc(Cl)cc3)nn21 (some centres unmarked) [Compound I-0241]
8,100 to 1000 nM,CCCCCC1CN(CC(=O)N2CCCC(c3ccccc3)C2)C(=O)c2cc(-c3ccc(Cl)cc3)nn21 (centres unmarked) [Compound I-0106]
9,10 to 100 nM,CCCCCC1CN(CC(=O)N2CCCC2C(=O)O)C(=O)c2cc(-c3ccc(Cl)cc3)nn21 (centres unmarked) [Compound I-0065]
10,100 to 1000 nM,CCCCC1CN(CCN2CCOCC2)C(=O)c2cc(-c3ccc(Cl)cc3)nn21 (centres unmarked) [Compound I-0273]
11,≥ 1000 nM,CCCCC1CN(c2ccc(CC(=O)O)cc2)C(=O)c2cc(-c3ccc(Cl)cc3)nn21 (centres unmarked) [Compound I-0286]
12,10 to 100 nM,CCCCCC1CN(CC(=O)N2CCCC(C(N)=O)C2)C(=O)c2cc(-c3ccc(Cl)cc3)nn21 (centres unmarked) [Compound I-0095]
13,≥ 1000 nM,CCCCCC1CN(Cc2ccc(O)cc2)C(=O)c2cc(-c3ccc(Cl)cc3)nn21 (centres unmarked) [Compound I-0123]
14,≥ 1000 nM,CCCCCC1CN(CC(=O)NCCN(C)C)C(=O)c2cc(-c3ccc(Cl)cc3)nn21 (centres unmarked) [Compound I-0103]
15,100 to 1000 nM,CCCCC1CN(CC(=O)NC2(C#N)CC2)C(=O)c2cc(-c3ccc(Cl)cc3)nn21 (centres unmarked) [Compound I-0187]
16,100 to 1000 nM,CCCCCC1CN(CNC(=O)OC(C)(C)C)C(=O)c2cc(-c3ccc(Cl)cc3)nn21 (centres unmarked) [Compound I-0005]
